Test results: the NIST ThermoML archive (doi:10.1016/j.fluid.2018.09.026)
Where “and” joins values, the source holds several entries; their conditions need not be identical. Equal entries are not always repeated. Numbers after ± are expanded uncertainties.

Conditions: Liquid; for viscosity: Vibrating wire viscometry; for mass density: Vibrating tube method

OCCOCCOCCO [triethylene glycol]
Conditions | mass density | viscosity
343.08 K, 67540 kPa | – | 10.64 ± 0.47 mPa·s
343.08 K, 67870 kPa | – | 10.63 ± 0.49 mPa·s
343.15 K, 100 kPa | 1083.9 ± 4.3 kg/m3 | –
343.15 K, 640 kPa | 1084.2 ± 4.3 kg/m3 | –
343.15 K, 1120 kPa | 1084.4 ± 4.3 kg/m3 | –
343.15 K, 1600 kPa | 1084.7 ± 4.3 kg/m3 | –
343.15 K, 2110 kPa | 1084.9 ± 4.4 kg/m3 | –
343.15 K, 3040 kPa | 1085.5 ± 4.4 kg/m3 | –
343.15 K, 5040 kPa | 1086.6 ± 4.4 kg/m3 | –
343.15 K, 6960 kPa | 1087.5 ± 4.4 kg/m3 | –
343.15 K, 9920 kPa | 1089 ± 4.4 kg/m3 | –
343.15 K, 14810 kPa | 1091.6 ± 4.4 kg/m3 | –
343.15 K, 19680 kPa | 1093.9 ± 4.4 kg/m3 | –
343.15 K, 24620 kPa | 1096.4 ± 4.4 kg/m3 | –
343.15 K, 29580 kPa | 1098.7 ± 4.4 kg/m3 | –
343.15 K, 34460 kPa | 1101 ± 4.4 kg/m3 | –
343.15 K, 39370 kPa | 1103.3 ± 4.4 kg/m3 | –
343.15 K, 44240 kPa | 1105.4 ± 4.4 kg/m3 | –
343.15 K, 49160 kPa | 1107.6 ± 4.5 kg/m3 | –
343.15 K, 54020 kPa | 1109.7 ± 4.5 kg/m3 | –
343.15 K, 58940 kPa | 1111.7 ± 4.5 kg/m3 | –
343.15 K, 63890 kPa | 1113.8 ± 4.5 kg/m3 | –
343.15 K, 68680 kPa | 1115.7 ± 4.5 kg/m3 | –
353.15 K, 100 kPa | 1076 ± 4.3 kg/m3 | –
353.15 K, 650 kPa | 1076.3 ± 4.3 kg/m3 | –
353.15 K, 1100 kPa | 1076.5 ± 4.3 kg/m3 | –
353.15 K, 1550 kPa | 1076.7 ± 4.3 kg/m3 | –
353.15 K, 2100 kPa | 1077.1 ± 4.3 kg/m3 | –
353.15 K, 3050 kPa | 1077.6 ± 4.3 kg/m3 | –
353.15 K, 5040 kPa | 1078.6 ± 4.3 kg/m3 | –
353.15 K, 7010 kPa | 1079.8 ± 4.3 kg/m3 | –
353.15 K, 9960 kPa | 1081.3 ± 4.3 kg/m3 | –
353.15 K, 14810 kPa | 1084 ± 4.3 kg/m3 | –
353.15 K, 19780 kPa | 1086.5 ± 4.4 kg/m3 | –
353.15 K, 24610 kPa | 1089 ± 4.4 kg/m3 | –
353.15 K, 29560 kPa | 1091.9 ± 4.4 kg/m3 | –
353.15 K, 34450 kPa | 1093.8 ± 4.4 kg/m3 | –
353.15 K, 39370 kPa | 1096.1 ± 4.4 kg/m3 | –
353.15 K, 44270 kPa | 1098.4 ± 4.4 kg/m3 | –
353.15 K, 49200 kPa | 1100.6 ± 4.4 kg/m3 | –
353.15 K, 54090 kPa | 1102.8 ± 4.4 kg/m3 | –
353.15 K, 59010 kPa | 1104.9 ± 4.4 kg/m3 | –
353.15 K, 63820 kPa | 1107 ± 4.5 kg/m3 | –
353.15 K, 68800 kPa | 1109 ± 4.5 kg/m3 | –
362.88 K, 190 kPa | – | 4.247 ± 0.17 mPa·s [middle of 7 runs]
362.88 K, 1270 kPa | – | 4.27 ± 0.17 mPa·s [middle of 8 runs]
362.88 K, 1990 kPa | – | 4.308 ± 0.17 mPa·s and 4.283 ± 0.17 mPa·s and 4.311 ± 0.18 mPa·s
362.88 K, 2000 kPa | – | 4.292 ± 0.17 mPa·s [middle of 5 runs]
362.88 K, 4990 kPa | – | 4.388 ± 0.18 mPa·s [middle of 4 runs]
362.88 K, 5000 kPa | – | 4.396 ± 0.18 mPa·s and 4.394 ± 0.18 mPa·s and 4.386 ± 0.18 mPa·s
362.88 K, 10010 kPa | – | 4.54 ± 0.18 mPa·s and 4.522 ± 0.18 mPa·s and 4.512 ± 0.18 mPa·s
362.88 K, 10020 kPa | – | 4.524 ± 0.18 mPa·s [middle of 4 runs]
362.88 K, 19820 kPa | – | 4.812 ± 0.2 mPa·s
362.88 K, 19830 kPa | – | 4.792 ± 0.2 mPa·s and 4.786 ± 0.2 mPa·s and 4.794 ± 0.2 mPa·s
362.88 K, 19840 kPa | – | 4.789 ± 0.2 mPa·s
362.88 K, 29760 kPa | – | 5.092 ± 0.21 mPa·s
362.88 K, 29770 kPa | – | 5.089 ± 0.21 mPa·s
362.88 K, 29780 kPa | – | 5.088 ± 0.21 mPa·s
362.88 K, 29790 kPa | – | 5.109 ± 0.21 mPa·s
362.88 K, 39030 kPa | – | 5.381 ± 0.22 mPa·s
362.88 K, 39050 kPa | – | 5.39 ± 0.22 mPa·s
362.88 K, 39060 kPa | – | 5.382 ± 0.22 mPa·s
362.88 K, 39070 kPa | – | 5.395 ± 0.22 mPa·s
362.88 K, 39330 kPa | – | 5.395 ± 0.22 mPa·s
362.88 K, 50130 kPa | – | 5.747 ± 0.23 mPa·s
362.88 K, 50260 kPa | – | 5.754 ± 0.23 mPa·s
362.88 K, 50300 kPa | – | 5.756 ± 0.23 mPa·s
362.88 K, 50380 kPa | – | 5.739 ± 0.23 mPa·s
362.88 K, 50430 kPa | – | 5.763 ± 0.23 mPa·s
362.88 K, 67370 kPa | – | 6.356 ± 0.26 mPa·s
362.88 K, 67660 kPa | – | 6.331 ± 0.26 mPa·s
362.88 K, 67980 kPa | – | 6.382 ± 0.26 mPa·s
363.15 K, 100 kPa | 1068.1 ± 4.3 kg/m3 and 1068 ± 4.3 kg/m3 | –
363.15 K, 660 kPa | 1068.4 ± 4.3 kg/m3 | –
363.15 K, 1120 kPa | 1068.7 ± 4.3 kg/m3 | –
363.15 K, 1560 kPa | 1068.9 ± 4.3 kg/m3 | –
363.15 K, 2130 kPa | 1069.2 ± 4.3 kg/m3 | –
363.15 K, 3050 kPa | 1069.8 ± 4.3 kg/m3 | –
363.15 K, 5090 kPa | 1070.9 ± 4.3 kg/m3 | –
363.15 K, 6990 kPa | 1072 ± 4.3 kg/m3 | –
363.15 K, 9980 kPa | 1073.7 ± 4.3 kg/m3 | –
363.15 K, 14880 kPa | 1076.4 ± 4.3 kg/m3 | –
363.15 K, 19680 kPa | 1079 ± 4.3 kg/m3 | –
363.15 K, 24720 kPa | 1081.7 ± 4.3 kg/m3 | –
363.15 K, 29630 kPa | 1084.2 ± 4.4 kg/m3 | –
363.15 K, 34490 kPa | 1086.6 ± 4.4 kg/m3 | –
363.15 K, 39430 kPa | 1089 ± 4.4 kg/m3 | –
363.15 K, 44200 kPa | 1091.4 ± 4.4 kg/m3 | –
363.15 K, 49240 kPa | 1093.7 ± 4.4 kg/m3 | –
363.15 K, 54100 kPa | 1095.9 ± 4.4 kg/m3 | –
363.15 K, 59010 kPa | 1098.1 ± 4.4 kg/m3 | –
363.15 K, 63880 kPa | 1100.2 ± 4.4 kg/m3 | –
363.15 K, 68830 kPa | 1102.3 ± 4.4 kg/m3 | –
